Reference: patent US9381349B2, “Apparatus for treating cerebral neurovascular disorders including headaches by neural stimulation” (priority 1997, dated 2016)
Entries after “also recorded” stand apart in the source; their conditions may differ. Like-named read-outs stand apart in the source and are kept apart here.

What was measured:
migraine [1] = conditions: lidocaine, Intranasal Spray; 10-point pain scale
headache [2] = conditions: 10% (w/v) lidocaine solution sprayed through dorsonasal cannula; three patients
Experimental: The solution was administered by spraying it through a plastic cannula which had been bent to conform its shape such that the outlet of the cannula was located dorsonasally. The cannula was inserted into each nostril, and the solution was sprayed through the cannula, exiting therefrom through the outlet.

acute migraine episodes [3] = type: in vivo, human
Excerpt: (§1) The purpose of the experiments described in this Example was to determine the efficacy of dorsonasal administration of ropivacaine for inhibition of acute migraine episodes. Ropivacaine was dorsonasally administered to individual patients experiencing head pain, other symptoms, or both, believed to be associated with an acute migraine episode. Patients assessed head pain prior to and after ropivacaine administration.
Ropivacaine-HCl (NAROPINT™, Astra USA, Westborough, Mass.) was used as the commercially-available 0.75% (w/v) solution, and was obtained in 30 milliliter, sterile injectable vials.
Three methods were used to achieve dorsonasal delivery of ropivacaine to individual patients. Ropivacaine was administered to a first group of patients by an intranasal drip method. Ropivacaine was administered to a second group using cotton swabs, the absorbent portions of which were saturated with the ropivacaine solution. Ropivacaine was administered to patients in a third group by spraying the ropivacaine solution into each nostril, using either a squeeze-type spray bottle or a metered-dose spray bottle.
The intranasal drip method used to administer ropivacaine to the first group of patients was a based on the method described by Barre (1982, Headache 22:69-73), except that the ropivacaine solution was used in place of the solution used by Bane. Approximately 0.75 milliliter to approximately 1.0 milliliter of the ropivacaine solution was administered by way of each of the nostrils of each patient.
The cotton swab method used to administer ropivacaine to the second group of patients comprised gently inserting cotton swabs, sequentially and bilaterally, into the nostrils of patients and urging the swabs dorsally until their absorbent portions contacted portions of nasal epithelium located dorsal to the middle conchae. Each swab was left in place for approximately one minute, and was then withdrawn. Approximately 0.5 milliliter of the ropivacaine solution was delivered to each nostril using this method.
Patients in a third group were administered ropivacaine by spraying less than about 0.5 milliliter of the ropivacaine solution into each of the patient's nostrils using either a sterile squeeze bottle or a sterile metered-dose spray bottle of known design. The design and operation of each of these spray bottles are well known in the art.
Prior to administration of ropivacaine, each patient was placed in a supine position with the patient's head hyperextended approximately 45 degrees and rotated approximately 30 degrees to the right side. In this position, an imaginary line extending from the region of the nasal epithelium overlying the SPG of the patient through the patient's left nostril was approximately vertical. Ropivacaine was then administered to the left nostril of the patient as described for each of the three groups of patients. Ropivacaine was administered to each patient's right nostril after rotating the patient's head approximately 30 degrees to the left. Ropivacaine was administered to both nostrils of each patient to prevent cases of unilateral migraine from developing into contralateral migraine.
Prior to ropivacaine administration, each patient rated perceived headache pain according to a standard pain scale of the type used in the art. Patients were asked to rank the severity of pain which they were experiencing on a scale from 0 (no pain) to 10 (worst pain imaginable). This ten-point pain rating scale is analogous to, but has more gradations than, the four-point rating system used by the International Headache Society (IHS; Headache Classification Committee of the International Headache Society, 1988, Cephalalgia 8(Suppl. 7):19-28). Ropivacaine was administered to one nostril of each patient, and then to the other. The time required to administer ropivacaine to both nostrils of each patient was approximately three minutes. […]

migraine [4] = conditions: intranasal spray of 1-2 milliliters 4% (w/v) lidocaine; within fifteen minutes; cited from earlier work
nerve structure = conditions: intranasally administered; cited from earlier work
tinnitus = experiment: Inhibition of tinnitus by dorsonasal administration of ropivacaine (Example 4); type: in vivo, human; conditions: patient 4-2
Excerpt: Ropivacaine was dorsonasally administered to each of three patients using the nasal spray method or the nasal drops method described herein.

acute migraine episodes [5] = experiment: Dorsonasal administration of bupivacaine for inhibition of acute migraine episodes (Example 2); type: in vivo, human
Excerpt: as §1, with “bupivacaine” for “ropivacaine”, “Bupivacaine” for “Ropivacaine”
The materials and methods used in the procedures performed in this Example were substantially the same as the materials and methods described in Example 1, with the exception that the composition which was administered to the patients described in this example comprised a 0.75% (w/v) solution of bupivacaine.
The organization of and the abbreviations used in Table 6 are analogous to those used in Table 1, with the exception that “B” in the treatment column refers to bupivacaine.

[6] = cited from earlier work
[7] = n-heptane/buffer biphasic system; cited from earlier work
muscular headache = experiment: Dorsonasal administration of bupivacaine for muscular headache episodes (Example 5); type: in vivo, human; conditions: for Pain intensity after administration: 0.75% bupivacaine
Excerpt: The purpose of the experiments described in this Example was to determine the efficacy of dorsonasal administration of bupivacaine for inhibition of muscular headaches. Bupivacaine was dorsonasally administered to four individual patients experiencing head pain and other symptoms associated with a severe muscular headache episode. All of the patients had areas of sustained craniocervical muscle contraction and tenderness which was absent in all patients following headache resolution. Patients assessed head pain prior to and after bupivacaine administration. The four patients and their responses were as follows.

headache [8] = experiment: Dorsonasal headache treatment using bupivacaine (Example 8); type: in vivo, human; conditions: two patients
Experimental: Two different headache patients were treated by delivering about 0.25-0.75 milliliters of a 0.75% (w/v) bupivacaine solution to each nostril of the patients. The solution was administered by passing the solution along a plastic cannula having an absorbent portion affixed at the distal (i.e., outlet) portion thereof. This cannula had also been bent to conform its shape such that the outlet of the cannula and the affixed absorbent portion were located dorsonasally. The solution was passed along the cannula, and the cannula was left in place for several minutes.

[9] = in vivo; cited from earlier work
[10] = lidocaine 2.0% (w/v), 1 cc Drops, individual patients, pain scale 0-10
[11] = bupivacaine 0.75% (w/v), 2 Sprays, individual patients, pain scale 0-10
[12] = bupivacaine 0.75% (w/v), 2 cc Drops, individual patient, pain scale 0-10

## CCN(CC)CC(=O)Nc1c(C)cccc1C [Lidocaine, lidocaine]
Migraine [1]
  Rate of Pain Relief (migraine pain reduction per minute per gram of drug): 10.0
Headache [2]
  Relief from headache symptoms: All three patients experienced rapid relief
Acute migraine episodes [3]; human, in vivo, 15 min
  Oropharyngeal numbness: 6
Acute migraine episodes [3]; [10]
  Pain 5 min post-treatment: Pain 5 min post-treatment: 2
  Pain 30 min post-treatment: Pain 30 min post-treatment: 6
  Pain 45 min post-treatment: Pain 45 min post-treatment: 6^B
Migraine [4]
  Patients with decreased head pain / effectiveness to reduce migraine pain: 55%
Nerve structure
  Duration of action: shorter than about one hour

## Oc1ccc2c(c1)[C@@]13CCCC[C@@]1(O)[C@@H](C2)N(CC1CCC1)CC3 [butorphanol]
tinnitus
  Effect of intranasal butorphanol on chronic non-headache pain following intranasal ropivacaine: faster onset and a far more powerful effect

## CCCCN1CCCCC1C(=O)Nc1c(C)cccc1C (stereo not shown) [Bupivacaine, bupivacaine]
Acute migraine episodes [5]; bupivacaine 0.75% (w/v), 2 Sprays, individual patients (first or 2nd treatment), pain scale 0-10, listed as B
  Pain 5 min post-treatment: Pain 5 min post-2nd-treatment: 0
Acute migraine episodes [5]; bupivacaine 0.75% (w/v), 2 Sprays, individual patients, listed as B
  Rebound / recurrence at follow-up: Recurrence 4 hours post-treatmt; also recorded: No rebound up to 24 hours
Acute migraine episodes [5]; [11]
  Pain 3 min post-treatment: Pain 3 min post-treatment: 0
  Pain 10 min post-treatment: Pain 10 min post-treatment: 0
Acute migraine episodes [5]; bupivacaine 0.75% (w/v), 2 cc Drops, P2#3
  Associated symptom after treatment: Head pressure persisted
Acute migraine episodes [5]; [12]
  Pain 5 min post-treatment: Pain 5 min post-treatment: 1-2
  Pain 10 min post-treatment: Pain 10 min post-treatment: 0
Acute migraine episodes [5]; bupivacaine 0.75% (w/v), 2 cc Drops, individual patients
  Rebound at follow-up: No rebound up to 24 hours
Acute migraine episodes [5]; bupivacaine 0.75% (w/v), Sat'd Cotton Swab, individual patient
  Rebound at follow-up: No rebound up to 24 hours
Acute migraine episodes [5]; bupivacaine 0.75% (w/v), Sat'd Cotton Swab, individual patient, pain scale 0-10
  Pain 5 min post-treatment: Pain 5 min post-treatment: 0
Acute migraine episodes [5]; bupivacaine 0.75% (w/v), all seven patients
  Time to arrest of migraine: ≤ 10 min
Acute migraine episodes [5]; bupivacaine 0.75% (w/v), seven patients
  Rebound of migraine within twenty-four hours of treatment: Six of the seven patients treated using bupivacaine experienced no rebound
Acute migraine episodes [5]; preliminary data
  Efficacy for relief of headache pain associated with migraine: efficacy similar to that of ropivacaine
[6]
  Proportion bound to protein in vivo: Approximately 95%
[7]
  Partition coefficient relative to lidocaine: about 10 times
Muscular headache; Patient 1, from about 8, within about 15 minutes, tension headache
  Pain intensity after administration: 0
Muscular headache; Patient 2, from about 7, within about 7 minutes, muscle contraction headache
  Pain intensity after administration: 0
Muscular headache; Patient 4, 5 minutes after treatment
  Muscle knots after treatment: muscle knots were no longer perceived
Muscular headache; Patients 3 (from about 5) and 4 (from about 7), within about 5 minutes, tension headache
  Pain intensity after administration: about 1
Headache [8]; 0.75% (w/v) bupivacaine solution via cannula with absorbent portion
  Relief from headache symptoms: Both of these patients experienced rapid relief
Headache [8]; 0.75% (w/v) bupivacaine solution, follow-up about one day
  Rebound of headache symptoms: neither patient experienced rebound of headache symptoms within about one day

## CCCN1CCCC[C@@H]1C(=O)Nc1c(C)cccc1C (single isomer, unassigned) [R(dextro) enantiomer of ropivacaine]
[9]
  Cardiotoxicity: Cardiotoxicity is a side effect
